# According to publication PMC11073699, “Odorant receptors for floral- and plant-derived volatiles in the yellow fever mosquito, Aedes aegypti (Diptera: Culicidae)” (PLOS ONE, 2024):
# pEC50: −log10 of the molar value. “And” between values parts separate entries of the source, which are not always exact repeats. Identical values can stand only once.
# Columns and labels:
# AaegOR71 = target: T1, AaegOR71 (Aedes aegypti, UniProt A0A3S7SHD4); experiment: Two-electrode voltage clamp of Xenopus laevis oocytes expressing AaegOR71/Orco (blends, unitary compounds, concentration-response); type: cell-based; details: for Raw Data (Response in nA) Oocyte 1 / Raw Data (Response in nA) Oocyte 2 / Raw Data (Response in nA) Oocyte 3 / Raw Data (Response in nA) Oocyte 4 / Raw Data (Response in nA) Oocyte 5 / Raw Data (Response in nA) Oocyte 6 / Raw Data (Response in nA) Oocyte 7 / Raw Data (Response in nA) Oocyte 8: Indoles 2 unitary compounds; for Raw Data (Response in nA): concentration-response, Oocytes 1-8 individually
# T1 sequence (A0A3S7SHD4 1-415): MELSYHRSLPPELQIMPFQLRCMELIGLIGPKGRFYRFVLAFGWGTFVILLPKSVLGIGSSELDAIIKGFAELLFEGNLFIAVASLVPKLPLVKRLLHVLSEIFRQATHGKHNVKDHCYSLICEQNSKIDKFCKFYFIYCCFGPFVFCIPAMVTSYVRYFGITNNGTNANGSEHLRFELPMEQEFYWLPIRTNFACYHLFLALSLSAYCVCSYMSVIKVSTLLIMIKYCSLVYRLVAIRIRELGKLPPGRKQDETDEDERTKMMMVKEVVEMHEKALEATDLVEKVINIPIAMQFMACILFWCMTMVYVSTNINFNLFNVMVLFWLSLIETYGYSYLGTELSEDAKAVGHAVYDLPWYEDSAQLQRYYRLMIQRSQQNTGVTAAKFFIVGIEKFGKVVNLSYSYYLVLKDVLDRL
# T1 sequence (Q178U6 1-478 partner): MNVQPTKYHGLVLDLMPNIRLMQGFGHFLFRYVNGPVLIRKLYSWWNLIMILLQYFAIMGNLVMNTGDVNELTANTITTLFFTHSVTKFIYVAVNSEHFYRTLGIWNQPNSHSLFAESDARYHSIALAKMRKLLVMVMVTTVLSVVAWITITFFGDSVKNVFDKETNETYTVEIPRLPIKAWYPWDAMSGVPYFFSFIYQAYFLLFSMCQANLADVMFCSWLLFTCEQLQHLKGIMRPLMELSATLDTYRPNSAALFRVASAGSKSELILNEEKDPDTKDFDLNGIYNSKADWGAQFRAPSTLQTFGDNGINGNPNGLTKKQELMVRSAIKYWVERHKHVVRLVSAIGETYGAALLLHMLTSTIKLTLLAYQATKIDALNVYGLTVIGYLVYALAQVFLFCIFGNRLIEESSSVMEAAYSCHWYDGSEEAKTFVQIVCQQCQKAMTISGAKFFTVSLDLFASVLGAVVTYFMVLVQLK
# Excerpt: (§1) The coding regions of ten AaegOR genes of interest (S3 File) and AaegOrco were synthesized by Twist Bioscience (San Francisco, CA, USA) and cloned into the pENTR plasmid. The Gateway LR directional cloning system (Invitrogen Corp., Carlsbad, CA, USA) was utilized to subclone AaegOR coding regions into the pSP64t-RFA oocyte expression plasmid. Plasmids were purified using the GeneJet Plasmid Miniprep Kit (ThermoFisher Scientific, Waltham, MA, USA). Purified plasmids were sequenced in both directions to confirm coding regions.
# (§2) Chemical compounds (S6 File) used in the deorphanization of AaegORs were purchased from Acros Organics (Morris, NJ, USA), Alfa Aesar (Ward Hill, MA, USA), and ThermoFisher Scientific (Waltham, MA, USA) at the highest purity available. Compounds were stored as 1M stocks in 100% DMSO. Serial dilutions of each compound were prepared in 10% DMSO and blended by chemical class.
# (§3) pSP64t-RFA: AaegOR clones were linearized using Xbal, and cRNAs were synthesized using the mMESSAGE mMACHINE ® SP6 kit (Life Technologies, Carlsbad, CA, USA). Xenopus laevis stage V-VII oocytes purchased from Xenopus1 (Dexter, MI, USA) were stored at 18°C in Incubation medium (ND96 96 with 5% dialyzed horse serum, 50μg/mL gentamycin, 100μg/mL streptomycin, 100μg/mL penicillin, and 550μg/mL sodium pyruvate). 30nL of cRNA was injected into multiple oocytes using a microinjection syringe pump (World Precision Instruments, Sarasota, FL, USA) maintained at 18°C for 48–72 hrs. Odorant blends were perfused across individual oocytes for 10–15 seconds, held at a resting membrane potential of -80 mV using an OC-725C oocyte clamp (Warner Instruments, LLC, Hamden, CT, USA). Induced currents were measured indirectly using the two-electrode voltage clamp technique (TEVC). Following each stimulus, currents were allowed to return to baseline before further stimulation. Data was captured using the Digidata 1550 B digitizer and PClamp10 software (Molecular Devices, San Jose, CA, USA). Concentration-response curves were generated by perfusing unitary odorants over oocytes at increasing concentrations from [10^-3M] to [10^-9M]. Data were analyzed using GraphPad Prism 8 (GraphPad Software Inc., La Jolla, CA, USA). At least two biological replicates were conducted at each concentration and for each compound. Data for at least seven oocytes responding to each compound was analyzed (S7 File).
# AaegOR6 = target: T2, AaegOR6 (Aedes aegypti, UniProt A0A1S4G757); experiment: Two-electrode voltage clamp of Xenopus laevis oocytes expressing AaegOR6/Orco (blends, unitary compounds, concentration-response); type: cell-based; details: for Raw data (Responses in nA) Oocyte 1 / Raw data (Responses in nA) Oocyte 2 / Raw data (Responses in nA) Oocyte 3 / Raw data (Responses in nA) Oocyte 4 / Raw data (Responses in nA) Oocyte 5 / Raw data (Responses in nA) Oocyte 6 / Raw data (Responses in nA) Oocyte 7 / Raw data (Responses in nA) Oocyte 8: Indoles 2 unitary compounds
# T2 sequence (A0A1S4G757 1-398): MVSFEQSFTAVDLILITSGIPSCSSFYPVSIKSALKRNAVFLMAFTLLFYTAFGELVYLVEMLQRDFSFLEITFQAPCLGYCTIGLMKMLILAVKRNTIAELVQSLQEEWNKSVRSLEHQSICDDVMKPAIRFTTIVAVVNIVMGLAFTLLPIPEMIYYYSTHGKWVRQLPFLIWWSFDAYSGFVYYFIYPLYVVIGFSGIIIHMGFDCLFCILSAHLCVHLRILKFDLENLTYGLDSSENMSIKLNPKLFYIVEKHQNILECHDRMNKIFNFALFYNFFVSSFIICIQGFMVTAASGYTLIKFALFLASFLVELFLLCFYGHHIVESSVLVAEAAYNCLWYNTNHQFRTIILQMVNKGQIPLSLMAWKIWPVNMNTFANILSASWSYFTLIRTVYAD
# T2 sequence (Q178U6 1-478 partner): T1 sequence (Q178U6 1-478 partner)
# Excerpt: as §1, §2, §3
SMILES,Raw Data (Response in nA) Oocyte 1 (AaegOR71),Raw Data (Response in nA) Oocyte 2 (AaegOR71),Raw Data (Response in nA) Oocyte 3 (AaegOR71),Raw Data (Response in nA) Oocyte 4 (AaegOR71),Raw Data (Response in nA) Oocyte 5 (AaegOR71),Raw Data (Response in nA) Oocyte 6 (AaegOR71),Raw Data (Response in nA) Oocyte 7 (AaegOR71),Raw Data (Response in nA) Oocyte 8 (AaegOR71),Raw data (Responses in nA) Oocyte 1 (AaegOR6),Raw data (Responses in nA) Oocyte 2 (AaegOR6),Raw data (Responses in nA) Oocyte 3 (AaegOR6),Raw data (Responses in nA) Oocyte 4 (AaegOR6),Raw data (Responses in nA) Oocyte 5 (AaegOR6),Raw data (Responses in nA) Oocyte 6 (AaegOR6),Raw data (Responses in nA) Oocyte 7 (AaegOR6),Raw data (Responses in nA) Oocyte 8 (AaegOR6),further results
OCc1c[nH]c2ccccc12 [3-Indolemethanol],240 nA,0 nA,0 nA,0 nA,0 nA,0 nA,0 nA,0 nA,0.0 nA,0.0 nA,10.0 nA,0.0 nA,0.0 nA,0.0 nA,0.0 nA,0.0 nA,
Oc1cccc2[nH]ccc12 [4-Hydroxyindole],20 nA,30 nA,0 nA,30 nA,0 nA,30 nA,30 nA,10 nA,0.0 nA,0.0 nA,5.0 nA,0.0 nA,0.0 nA,0.0 nA,0.0 nA,0.0 nA,
"O=C1CCOc2ccccc21 [4-chromanone, 4-Chromanone]",0 nA,310 nA,15 nA,140 nA,15 nA,60 nA,30 nA,20 nA,70.0 nA,50.0 nA,90.0 nA,170.0 nA,70.0 nA,650.0 nA,510.0 nA,510.0 nA,"pEC50 (AaegOR6; AaegOR6/Orco expressing oocytes, TEVC, concentration-response of normalized current): ~5.16 and 5.16"
c1ccc2ncncc2c1 [Quinazoline],70 nA,440 nA,45 nA,250 nA,40 nA,150 nA,50 nA,40 nA,0.0 nA,0.0 nA,0.0 nA,0.0 nA,0.0 nA,10.0 nA,0.0 nA,0.0 nA,
"O=Cc1ccnc2ccccc12 [4-quinolinecarboxaldehyde, 4-Quinolinecarboxaldehyde]",1070 nA,2930 nA,590 nA,1710 nA,390 nA,930 nA,330 nA,410 nA,0.0 nA,0.0 nA,0.0 nA,0.0 nA,0.0 nA,0.0 nA,0.0 nA,0.0 nA,"pEC50 (AaegOR71; AaegOR71/Orco expressing oocytes, TEVC, concentration-response of normalized current): ~6.02 and 6.02; Raw Data (Response in nA) (AaegOR71; first series, 1e-9 M): 10 nA (2×) and 0 nA (5×) and 30 nA; Raw Data (Response in nA) (AaegOR71; first series, 5e-9 M): 30 nA (2×) and 10 nA (2×) and 20 nA and 0 nA and 5 nA (2×); Raw Data (Response in nA) (AaegOR71; first series, 1e-8 M): 60 nA (2×) and 15 nA and 30 nA and 25 nA and 5 nA and 10 nA (2×); Raw Data (Response in nA) (AaegOR71; first series, 5e-8 M): 140 nA and 35 nA and 70 nA and 25 nA (2×) and 110 nA and 10 nA and 30 nA; Raw Data (Response in nA) (AaegOR71; first series, 1e-7 M): 200 nA and 50 nA (3×) and 120 nA and 30 nA (2×) and 190 nA; Raw Data (Response in nA) (AaegOR71; first series, 5e-7 M): 500 nA and 150 nA and 320 nA and 90 nA (2×) and 380 nA and 100 nA and 120 nA; Raw Data (Response in nA) (AaegOR71; first series, 1e-6 M): 620 nA and 180 nA and 410 nA and 125 nA and 470 nA and 140 nA and 150 nA (2×); Raw Data (Response in nA) (AaegOR71; second series (unlabelled), 5e-9 M): 8.84 nA and 16 nA and 25 nA and 15 nA (2×) and 5 nA (2×) and 0 nA; Raw Data (Response in nA) (AaegOR71; second series (unlabelled), 1e-8 M): 20 nA (3×) and 40 nA (2×) and 60 nA and 150 nA and 30 nA; Raw Data (Response in nA) (AaegOR71; second series (unlabelled), 5e-8 M): 40 nA (4×) and 80 nA and 100 nA and 160 nA and 20 nA; Raw Data (Response in nA) (AaegOR71; second series (unlabelled), 1e-7 M): 60 nA (3×) and 120 nA (2×) and 190 nA and 40 nA and 50 nA; Raw Data (Response in nA) (AaegOR71; second series (unlabelled), 5e-7 M): 140 nA and 240 nA and 260 nA and 110 nA and 80 nA (2×) and 300 nA and 50 nA; Raw Data (Response in nA) (AaegOR71; second series (unlabelled), 1e-6 M): 180 nA and 290 nA (2×) and 140 nA"
c1ccc2nccnc2c1 [Quinoxaline],0 nA,620 nA,85 nA,370 nA,60 nA,200 nA,80 nA,70 nA,0.0 nA,0.0 nA,0.0 nA,0.0 nA,0.0 nA,0.0 nA,0.0 nA,0.0 nA,
